Assay results from patent US11873298B2, “Compounds and uses thereof” (JANSSEN PHARMACEUTICA NV, priority 2017, dated 2024).

Tests used:
[1] = test system: yeast strains expressing the human ApoE4; assay: Yeast ApoE4 toxicity rescue assay (OD600 growth); conditions: 24 h; for Emax: read-out: ApoE4 Emax; for EC50: read-out: ApoE4 EC50
Excerpt: The induced expression of α-synuclein and ApoE4 confers cytotoxicity, thus enabling the identification of compounds that can restore cell viability. This instantaneous/synchronous induction of α-synuclein and ApoE4 can be achieved due to the following expression control. In glucose-containing media, gene expression from the GAL1 promoter is ‘off’ and actively repressed by additional epigenetic factors. In raffinose, expression is ‘off’, but the promoter not actively repressed. Upon transition to galactose-containing media, the promoter is instantaneously turned ‘on’ to achieve robust and synchronous induction of α-synuclein or ApoE4 expression. This highly regulated induction provides a robust window for the determination of both efficacy (amplitude of protective effect) and potency (concentration of protective effect) of cytoprotective compounds.
Re-suspended compound stocks were subsequently arrayed into 384 well compound plates using automated pipetting. All other wells not receiving stock compound were filled with 10 μL of 100% DMSO using an automated plate filler (Multidrop Combi). An 11 point, 2-fold serial dilution was then performed using the robotic platform. Compound assay plates were covered with foil and stored at −20° C. until use.
Each strain was handled according to standard protocols and cultured in media composed of CSM (complete synthetic media), YNB (yeast nitrogenous base), and a 2% (w/v) carbon source (either glucose, raffinose, or galactose).
In a standard yeast assay, a single-use aliquot of cells was thawed on ice and diluted into CSM/glucose (5 mL). Cultures were grown for 8 hours at 30° C. This pre-growth enables the yeast to exit the thaw and begin to grow without expressing aSyn or ApoE4. After 8 hours, cell density (OD600) was determined and cultures diluted to an OD600 of 0.01 in CSM/raffinose for an overnight culture phase at 30° C. During this period, the active glucose repression of the GAL1 promoter was relieved; however, expression of the α-Syn/ApoE4 genes were not yet induced. After ˜16 hours of growth, cultures attain an OD600 of 0.4-0.8 and were ready to apply to assay plates containing compound.
Compound profiling assays were executed in clear-bottom 384 well plates. First, compound plates were thawed at room temperature for 45′, centrifuged at 1,000×g for 1 minute, and the foil removed. Clear 384 well assay plates were then filled with 15 μL of CSM/galactose. […] The pin tool was washed iteratively with both 50% DMSO and 100% ethanol between each assay plate. After delivering compound to each assay plate, the overnight CSM/raffinose aSyn or ApoE4 cultures were added at a 2X cell density (0.04 for aSyn and 0.08 for ApoE4) in CSM/galactose to achieve a final assay OD600 of 0.02 and 0.04 for aSyn and ApoE, respectively. The cultures (15 μL per well) were then dispensed to the compound -containing 384 well assay plates using an automated plate filler. Plates were incubated in a humidified 30° C. incubator for 40 or 24 hours for aSyn and ApoE4, respectively. The ODsoo of each assay plate was then read with a microplate reader (e.g., Perkin Elmer Envision).
The efficacy and potency of compounds were calculated according to the following. Raw data (OD600 values) were first background corrected to account for OD600 contributed by the plate and media itself. The efficacy (percent above DMSO, herein referred to as “Emax”) was calculated according to the equation: (Experimental well−DMSO control well)/(DMSO control well)*100. […] Normalized dose-response data was fit with a logistic regression curve using Spotfire (TIBCO), or similar curve-fitting software package. EC50 values were then reported along with EMax to provide both efficacy and potency measures for each analog and enable further compound design.

Ole1 = biological target: T1, Ole1 (Saccharomyces cerevisiae, UniProt P21147); assay: Growth inhibition of yeast strain expressing Ole1 as sole desaturase; type: cell-based; conditions: yeast strain expressing Ole1 as sole desaturase
T1 construct: expressed in transfected cells; host or cells: S. cerevisiae ole1Δ strain (W303 pdr1Δ pdr3Δ background), plasmid pRS316 with TDH3 promoter and CYC1 terminator
T1 sequence (P21147 1-510): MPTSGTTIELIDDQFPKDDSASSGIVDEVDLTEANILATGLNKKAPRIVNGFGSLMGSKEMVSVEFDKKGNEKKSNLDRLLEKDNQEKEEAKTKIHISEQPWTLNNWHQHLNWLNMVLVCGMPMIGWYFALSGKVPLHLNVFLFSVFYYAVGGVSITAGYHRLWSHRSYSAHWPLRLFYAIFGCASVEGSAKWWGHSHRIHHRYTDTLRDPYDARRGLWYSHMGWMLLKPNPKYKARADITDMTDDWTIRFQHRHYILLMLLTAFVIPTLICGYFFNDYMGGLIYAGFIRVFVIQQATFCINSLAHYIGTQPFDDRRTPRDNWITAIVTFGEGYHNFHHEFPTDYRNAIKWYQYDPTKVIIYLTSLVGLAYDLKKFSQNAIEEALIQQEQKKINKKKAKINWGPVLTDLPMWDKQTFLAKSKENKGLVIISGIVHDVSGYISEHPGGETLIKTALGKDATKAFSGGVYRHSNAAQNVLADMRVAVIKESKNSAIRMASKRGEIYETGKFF
Method in brief: (§1)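 Measured by optical density at 600 nm, growth of desaturase-dependent yeast (OLE1 deleted; human SCD1, human SCD5 or yeast Ole1 supplied from plasmid) was scored after 24 h (Ole1) or 40 h (SCD1, SCD5) at 30° C. in galactose media lacking uracil with DMSO-delivered compound.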

[2] = test system: yeast strains expressing the human α-synuclein; assay: Yeast α-synuclein toxicity rescue assay (OD600 growth); conditions: 40 h; for EC50: read-out: α-Syn EC50; for Emax: read-out: α-Syn Emax
SCD5 = biological target: T2, SCD5 (Homo sapiens, UniProt Q86SK9); assay: Growth inhibition of humanized yeast strain expressing SCD5 as sole desaturase; type: cell-based; conditions: humanized yeast strain expressing SCD5
T2 construct: host or cells: S. cerevisiae ole1Δ strain (W303 pdr1Δ pdr3Δ background), plasmid pRS316 with TDH3 promoter and CYC1 terminator
T2 sequence (Q86SK9 1-330): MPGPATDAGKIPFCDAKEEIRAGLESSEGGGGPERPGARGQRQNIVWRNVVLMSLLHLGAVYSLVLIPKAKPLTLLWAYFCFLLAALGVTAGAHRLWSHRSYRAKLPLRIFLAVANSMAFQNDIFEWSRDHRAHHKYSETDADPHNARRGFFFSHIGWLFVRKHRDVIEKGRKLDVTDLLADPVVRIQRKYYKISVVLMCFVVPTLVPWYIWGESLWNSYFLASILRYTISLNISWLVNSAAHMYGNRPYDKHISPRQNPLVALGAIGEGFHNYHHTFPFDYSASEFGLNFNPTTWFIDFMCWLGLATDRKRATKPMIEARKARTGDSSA
Method in brief: as §1

SCD1 = biological target: T3, SCD1 (Homo sapiens, UniProt O00767); assay: Growth inhibition of humanized yeast strain expressing SCD1 as sole desaturase; type: cell-based; conditions: humanized yeast strain expressing SCD1
T3 construct: host or cells: S. cerevisiae ole1Δ strain (W303 pdr1Δ pdr3Δ background), plasmid pRS316 with TDH3 promoter and CYC1 terminator
T3 sequence (O00767 1-359): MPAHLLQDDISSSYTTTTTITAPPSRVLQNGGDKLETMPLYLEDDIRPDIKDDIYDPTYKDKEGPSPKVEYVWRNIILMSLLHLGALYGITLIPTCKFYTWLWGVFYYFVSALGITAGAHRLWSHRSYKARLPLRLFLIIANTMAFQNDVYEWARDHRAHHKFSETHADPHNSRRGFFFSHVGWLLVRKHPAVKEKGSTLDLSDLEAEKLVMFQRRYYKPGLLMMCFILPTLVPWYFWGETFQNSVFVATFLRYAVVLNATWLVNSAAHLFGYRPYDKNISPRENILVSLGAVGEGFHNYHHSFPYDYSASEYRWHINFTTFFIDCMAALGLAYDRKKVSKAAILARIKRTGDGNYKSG
Method in brief: as §1

## Cc1cccc(-c2nc(C3CCN(C(=O)C4CC(=O)N(c5ccc(C)c(C)c5)C4)CC3)no2)c1 (stereo not shown) [Compound 51]
[1]
  Emax: 286%
Ole1
  IC50: > 45 µM
  OLE1 % Max Inhibition: 102.56%
[2]
  EC50: 10.9 µM
  Emax: 137%
SCD5
  IC50: > 45 µM
  SCD5 % Max Inhibition: 6.59%
SCD1
  IC50: > 45 µM
  SCD1 % Max Inhibition: 76.83%

## CC(C)c1ccc(C(=O)N2CCC(c3noc(-c4cccc(F)c4)n3)CC2)cc1 [Compound 52]
[1]
  EC50: 14.5 µM
  Emax: 154%
Ole1
  IC50: > 45 µM
  OLE1 % Max Inhibition: 11.78%
[2]
  EC50: 9.06 µM
  Emax: 82%
SCD5
  IC50: > 45 µM
  SCD5 % Max Inhibition: −1.01%
SCD1
  IC50: > 45 µM
  SCD1 % Max Inhibition: 1.65%

## CCOc1ccc(-c2noc(C3CCN(C(=O)N4CCCCC4)CC3)n2)cc1OC [Compound 53]
[1]
  EC50: 16.6 µM
  Emax: 296%
Ole1
  IC50: > 45 µM
  OLE1 % Max Inhibition: 98.51%
[2]
  EC50: 6.6 µM
  Emax: 81%
SCD5
  IC50: > 45 µM
  SCD5 % Max Inhibition: 2.94%
SCD1
  IC50: > 45 µM
  SCD1 % Max Inhibition: 79.96%

## COc1ccc(-c2noc(C3CCN(C(=O)N4CCCCC4)CC3)n2)cc1OC [Compound 54]
[1]
  EC50: 17.3 µM
  Emax: 240%
Ole1
  IC50: > 45 µM
  OLE1 % Max Inhibition: 85.34%
[2]
  EC50: 9.1 µM
  Emax: 95%
SCD5
  IC50: > 45 µM
  SCD5 % Max Inhibition: 47.60%
SCD1
  IC50: > 45 µM
  SCD1 % Max Inhibition: 82.41%

## COc1ccc(-c2noc(C3CCN(C(=O)CNc4nccc5ccccc45)CC3)n2)cc1OC [Compound 55]
[1]
  EC50: 7.9 µM
  Emax: 29%
Ole1
  IC50: > 45 µM
  OLE1 % Max Inhibition: 114.12%
[2]
  EC50: 23.8 µM
  Emax: 47%
SCD5
  IC50: > 45 µM
  SCD5 % Max Inhibition: 74.78%
SCD1
  IC50: 33.7 µM
  SCD1 % Max Inhibition: 74.99%

## Cc1ccc(-c2noc(C3CCN(C(=O)[C@@H]4CC(=O)N(c5ccc(C)c(C)c5)C4)CC3)n2)cc1 [Compound 62]
[1]
  EC50: 21.4 µM
  Emax: 430%
Ole1
  IC50: > 45 µM
  OLE1 % Max Inhibition: 86.77%
[2]
  EC50: 21.7 µM
  Emax: 204%
SCD5
  IC50: > 45 µM
  SCD5 % Max Inhibition: 5.75%
SCD1
  IC50: > 45 µM
  SCD1 % Max Inhibition: 28.73%

## COc1ccc(-c2noc(C3CCN(C(=O)[C@H]4CC(=O)N(c5ccc(C)c(C)c5)C4)CC3)n2)cc1 [Compound 64]
[1]
  EC50: 15.3 µM
  Emax: 330%
Ole1
  IC50: > 45 µM
  OLE1 % Max Inhibition: 115.95%
[2]
  EC50: 13.7 µM
  Emax: 228%
SCD5
  IC50: > 45 µM
  SCD5 % Max Inhibition: 42.05%
SCD1
  IC50: > 45 µM
  SCD1 % Max Inhibition: 32.39%

## CCOc1ccc(-c2noc(C3CCN(C(=O)CNC(=O)c4ccccc4)CC3)n2)cc1OC [Compound 155]
[1]
  EC50: 2.16 µM
  Emax: 865%
Ole1
  OLE1 % Max Inhibition: 1.65%
[2]
  EC50: 0.011 µM
  Emax: 556%
SCD5
  IC50: 33.8 µM
  SCD5 % Max Inhibition: 67.35%
SCD1
  IC50: > 45 µM
  SCD1 % Max Inhibition: 98.25%

## Cc1ccc(N2CC(C(=O)N3CCC(c4nc(-c5ccccc5)no4)CC3)CC2=O)cc1C (stereo not shown) [compound 1]
[1]
  Emax: 320%
Ole1
  IC50: 40.3 µM
[2]
  Emax: 155%
SCD5
  IC50: > 45 µM
SCD1
  IC50: > 45 µM

## Cc1cccc(-c2noc(C3CCN(C(=O)C4CC(=O)N(c5ccc(C)c(C)c5)C4)CC3)n2)c1 (stereo not shown) [compound 3]
[1]
  Emax: 200%
Ole1
  IC50: 38.5 µM
[2]
  EC50: 17.8 µM
  Emax: 307%
SCD5
  IC50: > 45 µM
SCD1
  IC50: > 45 µM

## CCN1C(=O)COc2ccc(-c3noc(C4CCN(C(=O)C5CC(=O)N(c6ccc(C)c(C)c6)C5)CC4)n3)cc21 (stereo not shown) [compound 4]
[1]
  EC50: 11.8 µM
  Emax: 76%
Ole1
  IC50: > 45 µM
[2]
  EC50: 8.43 µM
  Emax: 59%
SCD5
  IC50: > 45 µM
SCD1
  IC50: > 45 µM

## COc1ccc(-c2noc(N3CCC(C(=O)N4CCCCC4)CC3)n2)cc1OC [compound 6]
[1]
  EC50: 15.1 µM
  Emax: 815%
Ole1
  IC50: 39.1 µM
[2]
  EC50: 10.2 µM
  Emax: 460%
SCD5
  IC50: 41.1 µM
SCD1
  IC50: > 45 µM

## CC(C)c1ccc(C(=O)N2CCC(c3nc(-c4cccc(F)c4)no3)CC2)cc1 [compound 8]
[1]
  Emax: 111%
Ole1
  IC50: > 45 µM
[2]
  EC50: 13.8 µM
  Emax: 188%
SCD5
  IC50: > 45 µM
SCD1
  IC50: > 45 µM

## O=C(NCC(=O)N1CCC(c2nc(-c3ccccc3)no2)CC1)c1ccccc1 [compound 9]
[1]
  Emax: 301%
Ole1
  IC50: > 45 µM
[2]
  EC50: 12.1 µM
  Emax: 167%
SCD5
  IC50: > 45 µM
SCD1
  IC50: > 45 µM

## COc1ccc(-c2noc(C3CCN(C(=O)CNC(=O)c4ccccc4)CC3)n2)cc1 [compound 10]
[1]
  EC50: 4.61 µM
  Emax: 736%
Ole1
  IC50: > 45 µM
[2]
  EC50: 4.87 µM
  Emax: 392%
SCD5
  IC50: > 45 µM
SCD1
  IC50: > 45 µM

## COc1cccc(-c2noc(C3CCN(C(=O)CNC(=O)c4ccccc4)CC3)n2)c1 [compound 11]
[1]
  Emax: 600%
Ole1
  IC50: > 45 µM
[2]
  EC50: 5.89 µM
  Emax: 309%
SCD5
  IC50: > 45 µM
SCD1
  IC50: > 45 µM

## COc1ccc(-c2noc(C3CCN(C(=O)CNC(=O)c4ccc(C)cc4)CC3)n2)cc1OC [compound 13]
[1]
  EC50: 0.368 µM
  Emax: 837%
Ole1
  IC50: > 45 µM
[2]
  EC50: 0.058 µM
  Emax: 712%
SCD5
  IC50: > 45 µM
SCD1
  IC50: > 45 µM

## COc1ccc(-c2noc(C3CCN(C(=O)CNC(=O)c4cccc(C)c4)CC3)n2)cc1OC [compound 14]
[1]
  EC50: 1.83 µM
  Emax: 771%
Ole1
  IC50: > 45 µM
[2]
  EC50: 1.16 µM
  Emax: 463%
SCD5
  IC50: 27.5 µM
SCD1
  IC50: > 45 µM

## COc1ccc(-c2noc(C3CCN(C(=O)CNC(=O)c4ccc(C)c(C)c4)CC3)n2)cc1OC [compound 15]
[1]
  EC50: 3.63 µM
  Emax: 866%
Ole1
  IC50: > 45 µM
[2]
  EC50: 1.71 µM
  Emax: 628%
SCD5
  IC50: > 45 µM
SCD1
  IC50: > 45 µM

## COc1ccc(-c2noc(C3CCN(C(=O)CNC(=O)c4ccc(C)c(C)c4)CC3)n2)cc1 [compound 16]
[1]
  EC50: 21.2 µM
  Emax: 418%
Ole1
  IC50: > 45 µM
[2]
  EC50: 17.8 µM
  Emax: 249%
SCD5
  IC50: > 45 µM
SCD1
  IC50: 37.1 µM

## COc1cccc(-c2noc(C3CCN(C(=O)CNC(=O)c4ccc(C)c(C)c4)CC3)n2)c1 [compound 17]
[1]
  Emax: 246%
Ole1
  IC50: > 45 µM
[2]
  EC50: 17.4 µM
  Emax: 330%
SCD5
  IC50: > 45 µM
SCD1
  IC50: > 45 µM

## COc1ccc(-c2noc(C3CCN(C(=O)C4CC(=O)N(c5ccc(C)c(C)c5)C4)CC3)n2)cc1OC (stereo not shown) [compound 19]
[1]
  EC50: 5.63 µM
  Emax: 891%
Ole1
  IC50: > 45 µM
[2]
  EC50: 2.43 µM
  Emax: 574%
SCD5
  IC50: > 45 µM
SCD1
  IC50: > 45 µM

## COc1ccc(-c2noc(C3CCN(C(=O)C4CC(=O)N(c5ccc(C)c(C)c5)C4)CC3)n2)cc1 (stereo not shown) [compound 20]
[1]
  EC50: 16.2 µM
  Emax: 529%
Ole1
  IC50: > 45 µM
[2]
  EC50: 15.1 µM
  Emax: 181%
SCD5
  IC50: > 45 µM
SCD1
  IC50: > 45 µM

## COc1cccc(-c2noc(C3CCN(C(=O)C4CC(=O)N(c5ccc(C)c(C)c5)C4)CC3)n2)c1 (stereo not shown) [compound 21]
[1]
  Emax: 447%
Ole1
  IC50: > 45 µM
[2]
  Emax: 276%
SCD5
  IC50: > 45 µM
SCD1
  IC50: 39.9 µM
